Laboratory results: patent publication US5162571A, “Phenol derivatives, their production and use” (Takeda Chemical Industries, Ltd., priority 1987, dated 1992)

How the values were obtained:
chorioallantoic membrane = assay: Angiogenesis inhibitory activity, shell-less chorioallantoic membrane (CAM) assay; assay type: in vivo, chick; conditions: 6 disks tested
Procedure: Angiogenesis inhibitory activity
Method: Shell-less chorioallantoic membrane assay.
The shell-less chorioallantoic membrane (CAM) assay was carried out by the method of Taylor and Folkman [S. Taylor and J. Folkman; Nature, 297, 307 (1982)] with a slight modification. Thus, 3-day chick embryos were removed from their shells and cultured in plastic cups on hammocks of plastic wrap. Samples along with ECGS (endothelial cell growth supplements, Collaborative Research Inc.) were placed on plastic disks (polypropylene, 6 mm in diameter). After the solution had dried, the disks were placed on the CAM of 10-day embryos. Three days later, inhibition of the neovascular formation by fumagillin was observed under a stereoscope (×20, SMZ-10, Nikon), and compared to the control disk containing ECGS as a stimulant of angiogenesis without samples.

[1] = tested on: lipid peroxides production in rat brain homogenates; assay: Inhibitory action on lipid peroxides production in rat brain homogenates; assay type: biochemical; conditions: 10^-5 M
Procedure: Inhibitory action on lipid peroxides production in rat brain homogenates
Method: The male SD rat brain tissue was used as 5% homogenate in phosphate-buffered solution. After incubation of the homogenate for 1 hour at 37° C., the amount of lipid peroxides produced was determined by the thiobarbituric acid method according to the description of Ohkawa et al. (Analytical Biochemistry, 95: 551, 1979)
Test compounds were used as a solution of dimethylsulfoxide. The inhibitory action on lipid peroxide production was expressed as a % inhibition as compared with the amount of production in the vehicle group.

[2] = tested on: U-46619 (TXA2 mimic)-induced broncho-constriction; assay: Inhibitory effect on U-46619 (TXA2 mimic)-induced broncho-constriction in guinea pig; assay type: in vivo; conditions: Cavia porcellus, ** p < 0.01; for inhibition in vivo at 5 mg/kg: po, 5 mg/kg p.o., 1 hour before U-46619; for inhibition in vivo at 0.31 mg/kg: iv, 0.31 mg/kg i.v., 9 minutes before U-46619
Procedure: Inhibitory effect on U-46619 (TXA2 mimic)-induced broncho-constrictionin guinea pig
Method: Eight male Hartley guinea pigs were used per one group. The guinea pig anesthetized with urethane (1.5 g/kg, i.p.) was fixed in a dorsal position, subjected to tracheotomy and connected to a respirator through a cannula. A side branch of the tracheal cannula was connected to a respirator (Harvard apparatus rodent respirator Type 680) at the rate of 70 strokes/min. and a constant volume of 3 to 5 ml.
Inflation pressure was kept constant at 10 cm H2 O.
After treatment with gallamine triethiodide (1 mg/kg, i.v.), U-46619 (10 μg/Kg) dissolved in a physiological saline solution was given through a carotid cannula and the airway resistance was measured by the overflow technique of Konzett-Rossler method (Konzett, H. and Rossler, R., Naunyn-Schmiedegerg's Arch, Exp. Path. Pharmak., 195, 71-74 (1940). A test compound was suspended in 5% gum arabic solution and was administered orally 1 hour before the treatment with U-46619.
Alternatively, a test compound was dissolved in aqueous 50% dimethylsulfoxide solution and administered interveneously in the dosage of 0.1 ml/100 g body weight 9 minutes before the treatment of U-46619.

[3] = molecular target: T1, specific [^3 H] U-46619 binding to guinea pig platelet membrane (Cavia porcellus, UniProt A0A286Y4I8); assay: Inhibition of specific [^3 H] U-46619 binding to guinea pig platelet membrane; conditions: [^3 H] U-46619, 25° C., 30 min; read-out: IC50 (Concentration for 50% inhibition)
T1 construct: Platelet membranes were prepared according to the following procedure; from tissue; host or cells: guinea pig platelet membranes
T1 sequence (A0A286Y4I8 1-347): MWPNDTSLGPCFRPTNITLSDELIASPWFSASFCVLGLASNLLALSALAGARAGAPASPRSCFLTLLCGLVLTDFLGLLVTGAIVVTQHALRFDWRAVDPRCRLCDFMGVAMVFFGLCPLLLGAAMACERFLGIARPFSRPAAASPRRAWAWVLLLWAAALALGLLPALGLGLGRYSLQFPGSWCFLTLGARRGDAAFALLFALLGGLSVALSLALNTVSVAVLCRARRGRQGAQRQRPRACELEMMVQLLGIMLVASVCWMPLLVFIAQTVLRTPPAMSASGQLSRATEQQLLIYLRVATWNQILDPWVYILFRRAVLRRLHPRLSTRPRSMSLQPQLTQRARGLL
Procedure: Inhibition of specific [^3 H] U-46619 binding to guinea pig platelet membrane
Method: Blood from normal guinea pig was collected into 0.315% citrate solution containing aspirin (final concentration 1 mM) and was centrifuged at 3000 r.p.m. for […]. The PRP (platelet rich plasma) was centrifuged at 4800 r.p.m for 10 min. at 4° C. Platelet membranes were prepared according to the following procedure: In order to remove the residual plasma protein, the platelet pellet was washed once with 30 ml of buffer containing 25 mM Tris-HCl/5 mM MgCl2 (pH 7.4) and recentrifuged to pellet the platelets. The platelets were then resuspended in 20 ml of the same buffer, and the cells were disrupted by sonication. The sonication was performed on ice using a Kontes Sonicator (Vineland, N.J.). The platelets were sonicated for a total of 90 sec. with a 15 sec. burst followed by a 15 sec. intermission. The sonicated mixture was centrifuged at 100,000×g for 1 hour and the membrane fraction was suspended in the same buffer. The protein concentration was adjusted to 1 mg/ml.
The binding assay was performed at 25° C. for 30 min. One ml of the resuspended membrane fraction was incubated with […] of [^3 H] U-46619. The incubation mixture was filtered through a glass fiber membrane (GF/C, whatman) to separate the membrane bound from free [^3 H] U-46619. The membranes were quickly washed twice with 5 ml of cold buffer, mixed with 4 ml of ACS scintillation fluid and counted for [^3 H] U-46619.

[4] = molecular target: T2, Thromboxane A2 (TXA2) receptor (Oryctolagus cuniculus, UniProt Q6WQI8); assay: Thromboxane A2 (TXA2) receptor antagonism: inhibitory effect on contraction of rabbit aorta by TXA2-mimics; assay type: cell-based; conditions: U-44069 (10^-7 M)-induced contraction; for inhibition at 10 µM: 10^-5 M; for inhibition at 1 µM: 10^-6 M; for inhibition at 0.1 µM: 10^-7 M
T2 construct: contraction by TXA2 mimics U-44069 or U-46619
T2 sequence (Q6WQI8 1-233): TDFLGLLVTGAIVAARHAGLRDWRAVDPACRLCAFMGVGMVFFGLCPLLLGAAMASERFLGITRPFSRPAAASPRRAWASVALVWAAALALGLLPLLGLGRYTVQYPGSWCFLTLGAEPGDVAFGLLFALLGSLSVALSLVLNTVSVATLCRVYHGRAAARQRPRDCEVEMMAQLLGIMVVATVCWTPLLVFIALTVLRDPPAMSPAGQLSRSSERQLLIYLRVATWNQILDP
Procedure: Thromboxane A2 (TXA2) receptor antagonism
Inhibitory effect on contraction of rabbit aorta by thromboxan A2 (TXA2)-mimics
Method: A spiral strip of the rabbit aorta (2-3 mm wide, about 3 cm long) was suspended in Krebs-Henseleit solution under the load of 2 g. The Krebs-Henseleit solution was saturated with a mixed gas of 95%O2 -5%CO2 and warmed at 37° C. Inhibition of the contraction of the vascular strip caused by a TXA2 mimic substance U-44069^1) (10^-7 M) or U-46619^2) (3×10 ^-8 M), by pretreatment with Compound No. 13 30 minutes before was studied.
1) U-44069: (5Z, 9α, 11α, 13E, 15S)-15-hydroxy-9,11-(epoxymethano)-prosta-5,13-dienoic acid (manufacturedby The Upjohn Company in U.S.A.)
2) U-46619: (5Z, 9α, 11α, […], 15S)-15-hydroxy-11,9-(epoxymethano)-prosta-5,13-dienoic acid (manufacturedby Cayman Chemical Company)
In Table 5, "*" represents addition of U-46619.

[5] = Extension of bleeding time; assay type: in vivo, rat; conditions: one hour before
Procedure: Extension of bleeding time
Method: Test compounds were administered orally to rats one hour before the experiments. The rats were anesthetized and the tail was cut at 1.5 mm from the tip. Immediately, the tail was hung down into a physiological saline warmed at 37° C. The time required from initiation to stop of bleeding (bleeding time) was measured.

[6] = tested on: vasoconstriction by PGD2 (rabbit aorta); assay: Inhibitory effect of vasoconstriction by PGD2; assay type: cell-based; conditions: Oryctolagus cuniculus; 10^-7 M; PGD2 (3×10^-6 M); n = 2; read-out: Inhibitory Rate (%)
Procedure: Inhibitory effect of vasoconstriction by PGD2
Method: A spiral strip of the rabbit aorta (2-3 mm wide, about 3 cm long) was suspended in Krebs-Henseleit solution under the load of 2 g. The Krebs-Henseleit solution was saturated with a mixed gas of 95% O2 -5% CO2 and warmed at 37° C. Inhibition of the contraction of the vascular strip caused by addition of PGD2 (3×10^-6 M) by pretreatment with Compound No. 13 30 minutes before was studied.

5-Lipoxygenase = molecular target: T3, 5-Lipoxygenase (Rattus norvegicus, UniProt P12527); assay: 5-Lipoxygenase inhibitory activity (5-HETE production in RBL-1 cells); assay type: cell-based; conditions: read-out: Inhibitory effect on 5-HETE production (%)
T3 construct: RBL-1 cells (rat basophilic leukemia cells); endogenous in cells; host or cells: RBL-1 (rat basophilic leukemia cells)
T3 sequence (P12527 1-673): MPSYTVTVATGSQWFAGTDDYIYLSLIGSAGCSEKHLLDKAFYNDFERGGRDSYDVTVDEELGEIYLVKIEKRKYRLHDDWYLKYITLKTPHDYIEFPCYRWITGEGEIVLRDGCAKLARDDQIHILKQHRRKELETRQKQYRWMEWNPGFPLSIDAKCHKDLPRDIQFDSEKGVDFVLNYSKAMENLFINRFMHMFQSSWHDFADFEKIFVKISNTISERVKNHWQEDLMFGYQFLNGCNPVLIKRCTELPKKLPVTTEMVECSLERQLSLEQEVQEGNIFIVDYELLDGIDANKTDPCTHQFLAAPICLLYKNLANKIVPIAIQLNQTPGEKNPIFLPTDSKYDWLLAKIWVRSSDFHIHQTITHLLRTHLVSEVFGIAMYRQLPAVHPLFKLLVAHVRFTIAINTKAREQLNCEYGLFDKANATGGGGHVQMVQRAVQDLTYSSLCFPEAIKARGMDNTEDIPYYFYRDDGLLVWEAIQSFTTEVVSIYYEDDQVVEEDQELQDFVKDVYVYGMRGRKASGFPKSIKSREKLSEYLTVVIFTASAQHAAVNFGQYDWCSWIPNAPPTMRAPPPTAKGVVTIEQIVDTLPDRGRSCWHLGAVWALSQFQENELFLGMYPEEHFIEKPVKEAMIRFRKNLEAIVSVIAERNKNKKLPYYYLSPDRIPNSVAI
Procedure: 5-Lipoxygenase inhibitory activity
Method: 10^7 RBL-1 cells (rat basophilic leukemia cells) were suspended in 0.5 ml of MCM (mast cell medium), and test solutions (made up of 0.5 ml of MCM, 50 μg of arachidonic acid, 10 μg of A-23187 (calcium ionophore) and 1 μM, 0.01 μM and 0.001 μM as the final concentration of the phenol compound, respectively) prepared previously were added respectively to the suspension, followed by reaction at 37° C. for 20 minutes. After the conclusion of the reaction, 4 ml of ethanol and 1,4-dimethoxy-2-methyl-3-(3-methoxypropyl)naphthalene as the internal reference drug were added to the reaction solution, and the mixture was shaken thoroughly and allowed to stand at room temperature for 10 minutes. Then, it was centrifuged (2000 r.p.m.) for 10 minutes, and the supernatant fluid was separated and concentrated to dryness under reduced pressure. 0.5 ml of 60% aqueous methanol was added to the concentrate, and 100 μl of the resulting solution was taken and subjected to high-performance liquid chromatography to determine the amount of 5-HETE (5-hydroxy-eicosatetraenoic acid). Determination of 5-HETE was made through measurement of an absorption at 237 nm with a UV absorption monitor.
The 5-HETE production inhibitory effect (IE) was expressed by [formula] wherein a is a peak height or peak area corrected by the peak for the internal reference when the phenol compound is not contained; b is a peak height or peak area corrected by the peak for the internal reference when the phenol compound is contained.

| Structure (SMILES) | Number of disks showing angiogenesis inhibition (chorioallantoic membrane; 4 μg) | Number of disks showing angiogenesis inhibition (chorioallantoic membrane; 20 μg) | Inhibition (%) [1] [%] | inhibition in vivo at 5 mg/kg [2] [%] | IC50 [3] [nM] | inhibition at 10 µM [4] [%] | inhibition at 1 µM [4] [%] | inhibition in vivo at 0.31 mg/kg [2] [%] | Bleeding time ([5]; 10 mg/kg oral, control 173 ± 23, * p < 0.05) [s] | Bleeding time ([5]; 30 mg/kg oral, control 164 ± 27, ** p < 0.01) [s] | inhibition at 0.1 µM [6] [%] | inhibition at 0.1 µM [4] [%] | inhibition at 10 µM (5-Lipoxygenase; 10^-5 M) [%] | inhibition at 1 µM (5-Lipoxygenase; 10^-6 M) [%] | inhibition at 0.1 µM (5-Lipoxygenase; 10^-7 M) [%] |
| --- | --- | --- | --- | --- | --- | --- | --- | --- | --- | --- | --- | --- | --- | --- | --- |
| Cc1cc(C)c(O)c(C(CCCCCC(=O)O)c2ccc(F)cc2)c1C (stereo not shown) [Compound 1, 7-(4-fluorophenyl)-7-(2-hydroxy-3,5,6-trimethylphenyl)heptanoic acid] | 3 | 6 | 92.0 | 55 | 240 | 100 | 56 |  |  |  |  |  |  |  |  |
| Cc1c(C)c(C)c(C(CCCCCC(=O)O)c2ccc(F)cc2)c(O)c1C (stereo not shown) [Compound 9] |  |  | 100 |  | 130 | 100 | 27 | 65 |  |  |  |  |  |  |  |
| Cc1c(O)c(C(CCCCCC(=O)O)c2ccc(F)cc2)c(C)c2c1CCC2 (stereo not shown) [Compound 21] |  |  |  | 76 | 49 |  | 99 | 51 | 235 ± 38 | 529 ± 154 | 54 | 5 |  |  |  |
| Cc1c(C)c(C=O)c(C)c(C(CCCCCC(=O)O)c2ccc(F)cc2)c1O (stereo not shown) [Compound 27, 7-(4-fluorophenyl)-7-(3-formyl-6-hydroxy-2,4,5-trimethylphenyl)heptanoic acid] |  |  |  | 84 | 2.3 |  |  |  |  |  | 100 | 98 |  |  |  |
| CC(C)(C)c1cc(O)c(O)c(C(CCCCCC(=O)O)c2ccccc2)c1 (stereo not shown) [Compound 56] |  |  | 100 |  |  |  |  |  |  |  |  |  | 93 | 93 | 66 |
